Key:
Type in all cases: cell-based
human TLR9 = biological target: T1, human TLR9 (Homo sapiens, UniProt Q9NR96); experiment: TLR9 inhibition reporter assay (HEK-Blue cells, SEAP reporter); details: HEK-Blue cells overexpressing human TLR9; stimulated with ODN2006 5 nM; SEAP read after 22 hour; dose range 0.05 nM-50 μM
T1 construct: host or cells: HEK-Blue cells
T1 sequence (Q9NR96 26-1032): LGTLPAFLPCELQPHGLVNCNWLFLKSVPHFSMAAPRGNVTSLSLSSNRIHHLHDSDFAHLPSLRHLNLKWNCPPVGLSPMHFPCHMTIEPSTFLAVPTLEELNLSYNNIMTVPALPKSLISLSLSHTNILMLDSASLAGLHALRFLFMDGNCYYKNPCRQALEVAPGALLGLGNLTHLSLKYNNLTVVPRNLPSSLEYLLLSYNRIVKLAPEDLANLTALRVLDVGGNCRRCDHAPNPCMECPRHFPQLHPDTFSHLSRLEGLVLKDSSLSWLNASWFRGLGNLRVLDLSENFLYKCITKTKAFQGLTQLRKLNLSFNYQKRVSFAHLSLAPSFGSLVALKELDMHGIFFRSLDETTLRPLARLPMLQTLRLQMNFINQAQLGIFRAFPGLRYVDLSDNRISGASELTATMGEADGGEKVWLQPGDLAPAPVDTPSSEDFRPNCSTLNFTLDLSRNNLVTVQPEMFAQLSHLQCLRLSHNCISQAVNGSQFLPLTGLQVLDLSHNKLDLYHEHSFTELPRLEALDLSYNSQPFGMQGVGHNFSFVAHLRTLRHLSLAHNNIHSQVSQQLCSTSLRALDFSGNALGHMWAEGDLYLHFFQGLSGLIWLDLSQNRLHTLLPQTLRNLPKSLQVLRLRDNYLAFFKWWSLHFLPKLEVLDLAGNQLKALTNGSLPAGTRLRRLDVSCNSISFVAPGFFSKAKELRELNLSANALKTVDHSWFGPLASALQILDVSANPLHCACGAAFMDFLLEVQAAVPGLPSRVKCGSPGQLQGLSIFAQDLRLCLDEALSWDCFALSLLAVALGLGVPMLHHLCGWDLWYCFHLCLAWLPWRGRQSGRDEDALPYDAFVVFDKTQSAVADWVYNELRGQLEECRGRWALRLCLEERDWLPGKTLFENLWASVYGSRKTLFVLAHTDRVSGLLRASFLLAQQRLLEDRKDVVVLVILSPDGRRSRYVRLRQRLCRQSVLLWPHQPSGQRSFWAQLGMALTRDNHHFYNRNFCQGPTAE
Experimental: (§1) HEK-Blue™-cells (Invivogen) overexpressing human TLR7, TLR8 or TLR9 receptors were used for screening inhibitors of these receptors using an inducible SEAP (secreted embryonic alkaline phosphatase) reporter gene under the control of the IFN-β minimal promoter fused to five NF-κB and AP-1-binding sites. Briefly, cells are seeded into Greiner 384 well plates (15000 cells per well for TLR7, 20,000 for TLR8 and 25,000 for TLR9) and then treated with test compounds in DMSO to yield a final dose response concentration range of 0.05 nM-50 μM. After a 30 minute compound pre-treatment at room temperature, the cells are then stimulated with a TLR7 ligand (gardiquimod at a final concentration of 7.5 μM), TLR8 ligand (R848 at a final concentration of 15.9 μM) or TLR9 ligand (ODN2006 at a final concentration of 5 nM) to activate NF-κB and AP-1 which induce the production of SEAP. After a 22 hour incubation at 37° C., 5% CO2, SEAP levels are determined with the addition of HEK-Blue™ Detection reagent (Invivogen), a cell culture medium that allows for detection of SEAP, according to manufacturer's specifications. The percent inhibition is determined as the % reduction in the HEK-Blue signal present in wells treated with agonist plus DMSO alone compared to wells treated with a known inhibitor.

human TLR7 = biological target: T2, human TLR7 (Homo sapiens, UniProt Q9NYK1); experiment: TLR7 inhibition reporter assay (HEK-Blue cells, SEAP reporter); details: HEK-Blue cells overexpressing human TLR7; stimulated with gardiquimod 7.5 μM; SEAP read after 22 hour; dose range 0.05 nM-50 μM
T2 construct: host or cells: HEK-Blue cells
T2 sequence (Q9NYK1 27-1049): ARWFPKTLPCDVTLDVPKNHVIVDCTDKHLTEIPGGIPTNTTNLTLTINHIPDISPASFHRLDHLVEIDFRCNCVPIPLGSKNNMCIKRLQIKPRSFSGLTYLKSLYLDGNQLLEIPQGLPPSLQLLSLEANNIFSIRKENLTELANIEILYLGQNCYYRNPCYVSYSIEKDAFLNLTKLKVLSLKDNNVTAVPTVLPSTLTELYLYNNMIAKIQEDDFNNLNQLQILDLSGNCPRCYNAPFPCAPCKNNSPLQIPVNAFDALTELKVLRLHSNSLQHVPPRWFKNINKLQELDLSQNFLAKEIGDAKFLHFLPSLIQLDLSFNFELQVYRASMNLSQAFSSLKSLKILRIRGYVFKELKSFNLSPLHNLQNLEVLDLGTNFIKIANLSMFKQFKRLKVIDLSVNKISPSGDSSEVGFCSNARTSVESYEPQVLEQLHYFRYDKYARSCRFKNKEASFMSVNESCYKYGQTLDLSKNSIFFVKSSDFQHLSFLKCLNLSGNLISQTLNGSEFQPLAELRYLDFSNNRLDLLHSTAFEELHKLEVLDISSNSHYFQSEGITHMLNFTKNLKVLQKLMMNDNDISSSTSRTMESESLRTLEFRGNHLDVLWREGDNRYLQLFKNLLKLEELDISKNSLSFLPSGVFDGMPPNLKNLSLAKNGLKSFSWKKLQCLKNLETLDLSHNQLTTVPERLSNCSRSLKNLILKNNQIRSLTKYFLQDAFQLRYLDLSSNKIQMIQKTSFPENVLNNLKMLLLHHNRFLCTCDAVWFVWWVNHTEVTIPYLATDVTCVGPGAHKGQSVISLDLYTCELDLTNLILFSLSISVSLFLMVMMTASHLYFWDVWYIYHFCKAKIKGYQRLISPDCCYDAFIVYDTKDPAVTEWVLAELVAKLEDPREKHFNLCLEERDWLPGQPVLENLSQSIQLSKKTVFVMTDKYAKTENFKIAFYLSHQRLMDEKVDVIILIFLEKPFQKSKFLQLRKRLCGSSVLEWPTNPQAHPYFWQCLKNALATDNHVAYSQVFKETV
Experimental: as §1

human TLR8 = biological target: T3, human TLR8 (Homo sapiens, UniProt Q9NR97); experiment: TLR8 inhibition reporter assay (HEK-Blue cells, SEAP reporter); details: HEK-Blue cells overexpressing human TLR8; stimulated with R848 15.9 μM; SEAP read after 22 hour; dose range 0.05 nM-50 μM
T3 construct: host or cells: HEK-Blue cells
T3 sequence (Q9NR97 27-1041): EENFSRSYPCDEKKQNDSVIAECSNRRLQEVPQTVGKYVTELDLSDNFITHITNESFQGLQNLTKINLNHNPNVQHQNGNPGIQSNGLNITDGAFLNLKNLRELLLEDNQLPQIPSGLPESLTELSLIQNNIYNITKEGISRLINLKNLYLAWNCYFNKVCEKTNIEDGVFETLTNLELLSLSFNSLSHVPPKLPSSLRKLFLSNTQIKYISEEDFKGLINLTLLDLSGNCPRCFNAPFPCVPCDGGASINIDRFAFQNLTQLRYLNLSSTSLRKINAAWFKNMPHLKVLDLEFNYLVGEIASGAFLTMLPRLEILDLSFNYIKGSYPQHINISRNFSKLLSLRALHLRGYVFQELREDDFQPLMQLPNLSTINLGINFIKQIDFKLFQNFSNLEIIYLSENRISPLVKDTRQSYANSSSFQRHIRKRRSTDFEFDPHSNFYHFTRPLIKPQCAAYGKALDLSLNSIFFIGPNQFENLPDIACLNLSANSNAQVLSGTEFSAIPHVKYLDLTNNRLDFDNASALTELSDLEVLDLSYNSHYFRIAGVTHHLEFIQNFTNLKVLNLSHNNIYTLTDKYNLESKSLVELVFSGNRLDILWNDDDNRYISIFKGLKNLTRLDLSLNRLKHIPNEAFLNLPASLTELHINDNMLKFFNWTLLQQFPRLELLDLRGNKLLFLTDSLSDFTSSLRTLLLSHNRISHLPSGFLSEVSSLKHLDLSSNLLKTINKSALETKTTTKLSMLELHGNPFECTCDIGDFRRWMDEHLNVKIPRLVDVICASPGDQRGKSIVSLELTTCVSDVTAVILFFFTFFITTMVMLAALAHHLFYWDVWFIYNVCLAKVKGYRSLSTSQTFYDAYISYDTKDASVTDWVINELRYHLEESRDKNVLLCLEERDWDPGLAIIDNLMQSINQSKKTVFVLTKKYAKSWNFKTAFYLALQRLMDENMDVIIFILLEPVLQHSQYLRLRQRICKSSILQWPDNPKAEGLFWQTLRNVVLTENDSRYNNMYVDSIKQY
Experimental: as §1

SMILES	IC50 (human TLR9) [µM]	IC50 (human TLR7) [µM]	IC50 (human TLR8) [µM]
CC(C)N1CCN(c2ccc(-c3ccc4[nH]c(=O)c(-c5ccncc5)cc4c3)cc2)CC1 [Example 17, 6-{4-[4-(propan-2-yl)piperazin-1-yl]phenyl}-3-(pyridin-4-yl)-1,2-dihydroquinolin-2-one]	0.171	0.338	0.949
CC(C)N1CCN(c2ccc(-c3ccc4[nH]c(=O)c(-c5ccccc5)cc4c3)cc2)CC1 [Example 18, 3-phenyl-6-{4-[4-(propan-2-yl)piperazin-1-yl]phenyl}-1,2-dihydroquinolin-2-one]	0.19	16.7	16.3
CC(C)N1CCN(c2ccc(-c3ccc4[nH]c(=O)c(-c5ccc(C(=O)N6CCCC6(C)C)cc5)cc4c3)cc2)CC1 [Example 19, 3-[4-(2,2-dimethylpyrrolidine-1-carbonyl)phenyl]-6-{4-[4-(propan-2-yl)piperazin-1-yl]phenyl}-1,2-dihydroquinolin-2-one]	0.2	2.4	≥ 50
CC(C)N1CCN(c2ccc(-c3ccc4[nH]c(=O)c(-c5cc(F)ccc5F)cc4c3)cc2)CC1 [Example 20, 3-(2,5-difluorophenyl)-6-{4-[4-(propan-2-vi)piperazin-1-yl]phenyl}-1,2-dihydroquinolin-2-one]	0.203	1.56	5.41
CCCC(=O)Nc1ccc(-c2cc3cc(-c4ccc(N5CCN(C(C)C)CC5)cc4)ccc3[nH]c2=O)cc1 [Example 21, N-[4-(2-oxo-6-{4-[4-(propan-2-yl)piperazin-1-yl]phenyl}-1,2-dihydroquinolin-3-yl)phenyl]butanamide]	0.214	≥ 50	≥ 50
CC(C)N1CCN(c2ccc(-c3ccc4[nH]c(=O)c(-c5ccc(N6CC[C@H](F)C6)cc5)cc4c3)cc2)CC1 [Example 22, 3-{4-[(3S)-3-fluoropyrrolidin-1-yl]phenyl}-6-{4-[4-(propan-2-yl)piperazin-1-yl]phenyl}-1,2-dihydroquinolin-2-one]	0.216	≥ 50	≥ 50
CC(C)N1CCN(c2ccc(-c3ccc4c(c3)cc(-c3ccc(N(C)S(C)(=O)=O)cc3)c(=O)n4C)cc2)CC1 [Example 23, N-methyl-N-[4-(1-methyl-2-oxo-6-{4-[4-(propan-2-yl)piperazin-1-yl]phenyl}-1,2-dihydroquinolin-3-yl)phenyl]methanesulfonamide]	0.221	5.51	36
CC(C)N1CCN(c2ccc(-c3ccc4[nH]c(=O)c(-c5cccc(F)c5F)cc4c3)cc2)CC1 [Example 24, 3-(2,3-difluorophenyl)-6-{4-[4-(propan-2-yl)piperazin-1-yl]phenyl}-1,2-dihydroquinolin-2-one]	0.224	2	15.2

Further lines, results first:

IC50 (human TLR9) [µM]	IC50 (human TLR7) [µM]	IC50 (human TLR8) [µM]	SMILES
0.226	6.48	1.39	Cc1ccccc1-c1cc2cc(-c3ccc(N4CCN(C(C)C)CC4)cc3)ccc2[nH]c1=O [Example 25, 3-(2-methylphenyl)-6-{4-[4-(propan-2-yl)piperazin-1-yl]phenyl}-1,2-dihydroquinolin-2-one]
0.231	1.8	0.673	CC(C)C(=O)Nc1ccc(-c2cc3cc(-c4ccc(N5CCN(C(C)C)CC5)cc4)ccc3n(C)c2=O)cc1 [Example 26, 2-methyl-N-[4-(1-methyl-2-oxo-6-{4-[4-(propan-2-yl)piperazin-1-yl]phenyl}-1,2-dihydroquinolin-3-yl)phenyl]propanamide]
0.233	2.5	1.04	CC(C)N1CCN(c2ccc(-c3ccc4c(c3)cc(-c3ccc(S(C)(=O)=O)cc3)c(=O)n4C)cc2)CC1 [Example 27, 3-(4-methanesulfonylphenyl)-1-methyl-6-{4-[4-(propan-2-yl)piperazin-1-yl]phenyl}-1,2-dihydroquinolin-2-one]
2.28	≥ 50	≥ 50	COC(=O)c1ccc(-c2cc3cc(-c4ccc(N5CCN(C(C)C)CC5)cc4)ccc3[nH]c2=O)cc1 [Example 28, methyl 4-(2-oxo-6-{4-[4-(propan-2-yl)piperazin-1-yl]phenyl}-1,2-dihydroquinolin-3-yl)benzoate]

From patent US20260183275A1, “SUBSTITUTED QUINOLONE COMPOUNDS USEFUL AS INHIBITORS OF TLR9” (Bristol-Myers Squibb Company, priority 2022, published 2026)
